Measured values from article PMC12926254, “Novel pyrazole carboxylate derivatives as lonazolac bioisosteres with selective COX-2 inhibition: design, synthesis and anti-inflammatory activity” (Molecular Diversity, 2025).
Marks after values point to notes of the source that are not given here.

Experiments:
[1] = MTS cytotoxicity assay; assay type: cell-based; conditions: mouse, RAW 264.7 macrophages (heading: LPS-induced), read-out: Cytotoxicity IC50 (LPS-induced RAW 264.7 cells)
Protocol: Using Dulbecco’s Modified Eagle Medium (DMEM, Biowest L0060) supplemented with 10% foetal bovine serum (FBS) (Biowest, S1810) and 1% anti-biotic and anti-mycotic (Biowest, L0010-100), the RAW264.7 macrophage cell line (ATCC ® TIB-71TM) was cultivated. The cells were then incubated at 37 °C with 5% CO2 until they were confluent, which should be between 70 and 80%. After two to three days, the growth media was regularly changed. Trypsin–EDTA was then used to wash and collect the cells (Biowest, L0931-500).
The MTS (3-(4,5-dimethylthiazol-2-yl)-5-(3-carboxymethoxy-phenyl)-2-(4-sulfophenyl)-2H-tetrazolium) test (Promega, ab197010) was used to determine cell viability. In short, a 96-well plate was seeded with 5 × 10^3 cells per well, and the cells were then incubated for 24 h at 37 °C and 5% CO2. The cells were then re-incubated for 24 h at 37 °C and 5% CO2 after the medium was discarded and replaced with 180 µl of fresh growth media and 20 µl of sample (1000 ug, 250 ug, 63 ug, 16 ug, and 4 ug µg/mL). 20 µl of MTS was then added to each well, and the mixture was incubated for three hours at 37 °C with 5% CO2. […] Control cells were those that received no treatment.

[2] = system: carrageenan-induced rat paw edema; test: Carrageenan-induced rat paw edema assay; assay type: in vivo; conditions: for % inhibition (edema) / Paw edema % inhibition / Paw edema thickness ± SEM: 50 mg/kg; for Paw edema % inhibition / Paw edema thickness ± SEM: rat; for ED50: Rattus norvegicus, dose producing 50% edema inhibition
Protocol: As previously described, paw thickness was evaluated at 1, 3, and 5 h following carrageenan injection at a dose of 50 mg/kg.

[3] = target: T1, COX-1 (Ovis aries, UniProt P05979); test: In vitro COX-1 inhibition (COX-1 Inhibitor Screening Kit-K548, Biovision); assay type: biochemical; conditions: mean of six values ± standard deviation
T1 construct: purchased Biovision K548
T1 sequence (P05979 25-600): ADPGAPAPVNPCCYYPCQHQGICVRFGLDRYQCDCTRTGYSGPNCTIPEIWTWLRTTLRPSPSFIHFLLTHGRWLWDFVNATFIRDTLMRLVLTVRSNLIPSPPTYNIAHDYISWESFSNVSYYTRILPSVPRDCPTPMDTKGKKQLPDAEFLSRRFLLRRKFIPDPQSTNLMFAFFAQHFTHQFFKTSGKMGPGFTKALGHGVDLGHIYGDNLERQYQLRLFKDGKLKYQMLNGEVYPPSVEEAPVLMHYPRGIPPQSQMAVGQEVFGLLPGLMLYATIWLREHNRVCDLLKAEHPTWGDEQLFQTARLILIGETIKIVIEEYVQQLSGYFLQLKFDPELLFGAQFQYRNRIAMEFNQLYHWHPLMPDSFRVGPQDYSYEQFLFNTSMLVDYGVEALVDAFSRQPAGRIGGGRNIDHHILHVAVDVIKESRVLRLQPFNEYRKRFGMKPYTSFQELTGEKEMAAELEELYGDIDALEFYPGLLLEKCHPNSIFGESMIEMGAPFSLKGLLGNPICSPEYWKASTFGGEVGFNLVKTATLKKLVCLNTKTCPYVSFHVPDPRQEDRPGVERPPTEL
Protocol: The IC50 value of the tested compounds was determined.
COX-1 inhibitor Screening Protocol: Dissolve the tested compounds in DMSO. Use COX assay buffer to dilute the relevant test concentration by 10X before using. Place 10 µl of diluted test inhibitor or assay buffer in the specified wells instead of the sample screen (S) or enzyme control (EC; no inhibitor). To one of the wells, add 2 µl of SC560 and 8 µl of COX Assay Buffer as an inhibitor control (IC). Before using, combine 2 µl of COX Cofactor with 398 µl of COX Assay Buffer to dilute COX cofactor 200 times. Blend thoroughly. Just before using, mix 5 µl of the provided arachidonic acid with 5 µl of NaOH to make the arachidonic acid solution. Combine quickly using a vortex. To dilute the arachidonic acid/NaOH solution 10 times, add 90 µl of water. There should be 80 µl of reaction mix in each well. Using a multi-channel pipette, add 10 µl of diluted arachidonic acid/NaOH solution to each well to initiate all the reactions at once.

[4] = system: gastric mucosa; test: Ulcerogenic liability (ulcer index); assay type: in vivo; conditions: 50 mg/kg orally, three successive days, rats
Protocol: […]. […] Rats were divided into 7 groups and fasted for 18 h before drug administration. The control group received the vehicle (2.5% Tween 80). […] After 2 h, animals were fed. Rats were given the required dose orally for three successive days. After 2 h of the last dose, rats were sacrificed; the stomach of each rat was removed then opened along the greater curvature and rinsed with saline. In order to examine the stomach, it was stretched by pins on a corkboard. The gastric mucosa was carefully inspected for the occurrence of ulcers with the aid of an illuminated magnifying lens (l0x), then ulcer index was calculated according to the method described by Cho and Ogle. Lesions were counted and measured along the greater diameter using transparent ruler. Every five hemorrhagic spots were considered equivalent to 1 mm of ulcer. The ulcer index (mm) was calculated from the sum of the total length of ulcers and hemorrhagic spots in each stomach.

[5] = system: carrageenan-induced rat paw edema; test: Carrageenan-induced rat paw edema assay; assay type: in vivo

| Compound | IC50 at 24 h [1] [µM] | % inhibition (edema) [2] [%] | Paw edema % inhibition ([2]; 1 h after carrageenan) [%] | Paw edema thickness ± SEM ([2]; 1 h after carrageenan) [mm] | Paw edema % inhibition ([2]; 3 h after carrageenan) [%] | Paw edema thickness ± SEM ([2]; 3 h after carrageenan) [mm] | Paw edema % inhibition ([2]; 5 h after carrageenan) [%] | Paw edema thickness ± SEM ([2]; 5 h after carrageenan) [mm] | ED50 [2] [mg/kg] | IC50 [3] [µM] | % incidence /10 [4] | Average no of ulcer [4] | Average severity [4] | % inhibition (edema) ([5]; 10 mg/kg) [%] | % inhibition (edema) ([5]; 25 mg/kg) [%] |
| --- | --- | --- | --- | --- | --- | --- | --- | --- | --- | --- | --- | --- | --- | --- | --- |
| CCOC(=O)COc1ccc(C2=NN(c3ccc(S(C)(=O)=O)cc3)C(c3ccc(Br)cc3)C2)cc1 (stereo not drawn) [Compound 15 h, Ethyl 2-(4-(5-(4-bromophenyl)-1-(4-(methylsulfonyl)phenyl)-4,5-dihydro-1H-pyrazol-3-yl)phenoxy)acetate] | 179 ± 6.37 | 82.28 | 54.85 | 2.57 ± 0.0071 | 55.9 | 2.61 ± 0.018 | 59.3 | 2.44 ± 0.0099 | 29.9 | 6.88 ± 0.25 | 2 | 0.40 ± 0.006^b | 0.29 ± 0.009***^b | 19.49 | 37.98 |
| CCOC(=O)COc1ccc(C2=NN(c3ccc(S(C)(=O)=O)cc3)C(c3ccc(OC)cc3)C2)cc1 (stereo not drawn) [Compound 15c, Ethyl 2-(4-(5-(4-methoxyphenyl)-1-(4-(methylsulfonyl)phenyl)-4,5-dihydro-1H-pyrazol-3-yl)phenoxy)acetate] | 301 ± 10.7 | 70.02 | 38.3 | 3.1 ± 0.002 | 55 | 2.56 ± 0.0034 | 66.1 | 2.1 ± 0.0084 | 24.1 | 11.3 ± 0.45 | 2 | 0.55 ± 0.012***^b | 0.17 ± 0.004***^b | 22.32 | 31.51 |
| CCOC(=O)COc1ccc(C2=NN(c3ccc(S(C)(=O)=O)cc3)C(c3cc(OC)c(OC)c(OC)c3)C2)cc1 (stereo not drawn) [Compound 15d, Ethyl 2-(4-(1-(4-(methylsulfonyl)phenyl)-5-(3,4,5-trimethoxyphenyl)-4,5-dihydro-1H-pyrazol-3-yl)phenoxy)acetate] | 183 ± 6.52 | 80.29 | 61.1 | 2.23 ± 0.0045 | 41.9 | 2.79 ± 0.011 | 40 | 2.90 ± 0.002 | 31.2 | 15.5 ± 0.61 | 2 | 0.47 ± 0.006^b | 0.51 ± 0.013^b | 29.52 | 36.61 |
